Like-named read-outs stand apart in the source and are kept apart here. One block for each molecule: values may come before it.
Key:
[1] = biological target: T1, NEK6 (Homo sapiens, UniProt Q9HC98); test: LANCE-Ultra NEK6 kinase assay; assay type: biochemical; conditions: 100 µM ATP
T1 construct: purchased Carna 05-130
Procedure: The twenty-five compounds resulting from virtual screening were firstly tested for the ability to inhibit the enzymatic activity of NEK6 at a single concentration of 30 µM, using LANCE technology. Quercetin, able to inhibit a broad panel of kinase, was used as positive control of inhibition[12],[30]. This initial screening allowed the identification of two compounds determining >70% NEK6 inhibition at 30 µM, i.e. compound 8 (6-hydroxy-4-methyl-2-oxo-5-[(5-phenyl (2-furyl)) methylene] pyridine-3-carbonitrile), and 21 (6-amino-2-phenyl-5,7,9-triazatetracyclo[8.7.0.0^3,^8 0^11,^16]heptadeca-1(10),3(8),6,11,13,15 hexaene-4,17-dione) (Fig. 4). […] The possible binding mode of compound 8 in the ATP-binding site of NEK6 as well as nonbonded interactions across the complex interface are shown in Fig. 6. Compound 8 may use its phenyl ring and furyl ring to form hydrophobic Pi-alkyl interactions with Ala72 (strand β3), Ala125 (hinge region) and Val59 (strand β2) of the ATP binding site (Fig. 6B). […] This is particulary relevant when considering that C–H···O hydrogen bonds play an important role in the ligand-binding process[33]–[35].
Compounds (i.e. 1 to 25) (Molport, Riga, LV-1011, Latvia) were dissolved in DMSO 100% as 10 mM stock and stored at −20 C. Activity of the compounds as NEK6 inhibitors was tested using LANCE NEK6 Ultra Kinase Assays protocol (U-TRF #25 technical note, PerkinElmer, Monza, MB). Compounds were first tested at 30 µM and incubated with 4 nM NEK6 (Carna, Chuo-ku, Kobe, Japan, # 05-130), 50 nM ULight-p70 S6K Peptide (PerkinElmer # TRF0126) and 100 μM ATP (Sigma-Aldrich, Saint Louis, U.S.A, # A2383) at room temperature. Kinase reactions were terminated after 90 minutes by the addition of EDTA and the signal was read with the Enspire plate reader (PerkinElmer) in TR-FRET mode (excitation at 320 nm and emission at 665 nm) after 60 minutes. Inhibition of NEK6 activity was calculated as percentage with respect to the control sample (100% of activity). Quercetin was used as positive control (Molport). […] For each compound the dose inhibiting 50% of NEK6 activity (IC50) was calculated using the GraphPad Prism 5.0 Software (San Diego, CA, USA).

[2] = biological target: T1, NEK6; test: Off-chip Mobility Shift Assay (MSA), NEK6; assay type: biochemical; conditions: CARNA Biosciences Study CBS170097, ATP 75 µM
Procedure: Therefore, we decided to evaluate the selectivity of compound 8 against a panel of NEK kinases at 10 µM, using the technique of Off-chip Mobility shift assay. This concentration was chosen according to the guidelines proposed by Knight and Shokat, since the probability of off-target effects increases dramatically above 10 µM[36]. Furthermore, ATP concentration was set to approximate the Km,ATP for each kinase, so that the resulting selectivity profile directly reflects the intrinsic affinities of the inhibitor[37]. […] A major consequence of this substitution may be the redistribution of surface charges at the flexible activation loop resulting in an altered electrostatic potential and ability of NEK6 kinase to interact with other molecules.
The inhibitory activity of compounds 8 and 21 on NEK6 was also verified with MSA technique (Off-chip Mobility shift assay) (CARNA Biosciences Study ID: CBS170097, CARNA Biosciences, Kobe). […] PKR Inhibitor was used as positive control. For profiling study against NEK kinases (i.e. NEK1, NEK2, NEK6, NEK7, NEK9) (CARNA Biosciences Study ID: CBS170098), 8 was tested at 10 μM and ATP concentration approximating Km for each kinase. Assay condition for kinases are available on “Kinase profiling book” downloading by www.carnabio.com (https://www.carnabio.com/output/pdf/ProfilingProfilingBook_en.pdf).

[3] = tested on: PEO1 (ovary); test: Cell-based cytotoxicity assay (ATPlite), PEO1; design: species or system human; conditions: 72 h
Description: The following human carcinoma cell lines were used for the study: MDA-MB-231 and MCF-7 (breast cancer; ATCC, Sesto San Giovanni, MI), PEO1 and COV318 (ovarian cancer; ECACC, Salisbury, UK and ATCC), HCT-15 and SW948 (colon cancer; Public Health England, Salisbury, UK and ATCC), NCI-H1975 and NCI-H1299, (lung cancer; ATCC). Cells were routinely tested free of mycoplasma (MycoAlert mycoplasma detection kit, LONZA, Rockland, ME, USA) and validated by STR (Short Tandem Repeat) DNA profiling (BMR Genomics srl, PD). Cells were grown following supplier indication, in a fully humidified atmosphere of 5% CO2/95% air. All the reagents were purchased from Sigma-Aldrich (St. Louis, MO), if not otherwise specified.

T1 sequence (Q9HC98 whole entry): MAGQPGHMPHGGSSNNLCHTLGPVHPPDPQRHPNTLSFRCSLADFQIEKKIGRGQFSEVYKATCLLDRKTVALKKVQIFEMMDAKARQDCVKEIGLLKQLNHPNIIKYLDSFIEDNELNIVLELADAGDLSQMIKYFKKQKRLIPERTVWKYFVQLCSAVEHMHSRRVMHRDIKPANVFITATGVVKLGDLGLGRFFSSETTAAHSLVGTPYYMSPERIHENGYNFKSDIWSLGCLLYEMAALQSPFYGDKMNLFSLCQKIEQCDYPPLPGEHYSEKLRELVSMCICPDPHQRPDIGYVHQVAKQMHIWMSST

- IC50 ([1]; LANCE-Ultra, mean ± SEM of 4 independent experiments): 2600 ± 50 nM
- inhibition at 30 µM ([1]; single concentration 30 µM, LANCE): > 70%
- IC50 [2]: 49.8 µM
SMILES: Nc1nc2c(c(=O)[nH]1)C(c1ccccc1)C1=C(N2)c2ccccc2C1=O (centres unmarked) [Compound 21, 6-amino-2-phenyl-5,7,9-triazatetracyclo[8.7.0.0^3,^8 0^11,^16]heptadeca-1(10),3(8),6,11,13,15 hexaene-4,17-dione]

SMILES: CC(=O)O[C@H]1C(=O)[C@@]2(C)[C@H]([C@H](OC(=O)c3ccccc3)[C@]3(O)C[C@H](OC(=O)[C@H](O)[C@@H](NC(=O)c4ccccc4)c4ccccc4)C(C)=C1C3(C)C)[C@]1(OC(C)=O)CO[C@@H]1C[C@@H]2O [paclitaxel]
- IC50 ([3]; Homo sapiens, PEO1, paclitaxel alone, read-out: IC50 paclitaxel): 0.007 ± 1e-06 µM

SMILES: N.N.[Cl][Pt][Cl] [cisplatin]
- IC50 ([3]; PEO1, cisplatin alone, read-out: Cisplatin IC50 (mean ± SEM)): 7.9 ± 0.65 µM

— paper PMC6207720, “Identification and antitumor activity of a novel inhibitor of the NIMA-related kinase NEK6” (Scientific Reports, 2018)
